Source: patent US10961199B2 (3B Pharmaceuticals GmbH, priority 2012, dated 2021)
Each block holds one compound with its values, some of them ahead of it.

What was measured:
NTR1 [1] = target: T1, NTR1 (Homo sapiens, UniProt P30989); test: Functional Ca2+ mobilisation assay (antagonist assay); type: cell-based; design: HA-tagged puromycin N-acetyltransferase-ubiquitin fusion (pExoIN2 system; HEK293 lines only) (N); host or cells: HT29 (endogenous receptor) or HEK293 stably transfected with NTR1; conditions: HT29 or NTR1-expressing HEK293 cells, EC80-concentration of agonist
T1 sequence (P30989 whole entry, the tested form may be a part): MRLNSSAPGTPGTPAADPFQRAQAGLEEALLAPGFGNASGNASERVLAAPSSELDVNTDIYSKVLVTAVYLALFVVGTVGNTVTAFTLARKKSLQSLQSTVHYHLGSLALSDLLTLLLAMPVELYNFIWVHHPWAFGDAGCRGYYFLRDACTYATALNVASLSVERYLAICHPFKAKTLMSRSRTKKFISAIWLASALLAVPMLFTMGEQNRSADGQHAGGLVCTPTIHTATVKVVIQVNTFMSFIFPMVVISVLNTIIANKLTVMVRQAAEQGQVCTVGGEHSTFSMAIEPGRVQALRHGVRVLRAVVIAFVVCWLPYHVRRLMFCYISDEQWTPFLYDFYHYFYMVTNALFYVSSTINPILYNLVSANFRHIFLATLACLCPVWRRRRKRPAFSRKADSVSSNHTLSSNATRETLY
Text: Functional Ca^2+ Mobilisation Assay
Ca^2+ ions are usually kept at nanomolar levels in the cytosol of cells, and act in a number of signal transduction pathways as second messengers. […] Changes in calcium ion concentration in standard assay protocols can be readily detected with fluorescent dyes that emit light when changes in intracellular Ca^2+ ion concentration occur. Given the transient nature of these responses, they are often read with instrumentation that has ‘inject and read’ capability.
HT29 or NTR1-expressing HEK293 cells were trypsinized and seeded into black flat clear-bottom 96-well plates (Corning, Amsterdam, The Netherlands) at 6×10^5 cells per well. […] For agonist assays, serial dilutions of agonistic substances were added to the cells loaded with dye and the change of the fluorescent signal was recorded continually for approx. 90 s using a FlexStation II (Molecular Devices, Biberach, Germany). […] For antagonist assays, cells loaded with 100 μl of Ca5-dye were pre-incubated with serial dilutions of antagonistic substances for 30 min, before the EC80-concentration of agonist was added to the cells and the change of the fluorescent signal was recorded continually for approx. 90 s. […]

NTR1 [2] = target: T1, NTR1; test: NTR1 radioligand binding assay (RLB, Cerep); design: host or cells: CHO cells (receptor preparation); conditions: CHO cells recombinantly expressing the human receptor; 0.05 nM 125I-(Tyr3-neurotensin); 60 min at 4° C.
Experimental: Radioligand Binding Assay
In order to determine the binding affinity of compounds comprising a radiolabel for NTR1, a radioligand binding assay was carried out. A radioligand is a radioactive biochemical substance that is used for diagnosis or for research-oriented study of cellular receptor systems of the body. In […] systems it is often used to quantify the binding of a test molecule to the binding site of radioligand. The higher the affinity of the molecule, the more radioligand is displaced from the binding site. The amount of bound radioligand can be measured by scintillation counting and thereby quantified. This assay is commonly used to calculate binding constants of molecules to receptors.
The NTR1 radioligand binding assay was performed by Cerep (Celle l'Evescault, France; Catalog reference 0109) according to Vita et al., FEBS Lett., 1993, 317, 139-142. NTR1 was prepared from CHO cells recombinantly expressing the human receptor and incubated with 0.05 nM ^125I-(Tyr^3-neurotensin) and serial dilutions of the test compounds. […] The result for each test compound is expressed as IC50 concentration and provides a measure for the affinity of the test compound for NTR1.

CCK1 (CCKA) (h) = target: T2, CCK1 (CCKA) (h) (Homo sapiens, UniProt P32238); test: ExpresSProfile CCK1 (CCKA) (h) agonist radioligand; type: binding; conditions: Reference Compound
T2 construct: Cerep P1
T2 sequence (P32238 1-428): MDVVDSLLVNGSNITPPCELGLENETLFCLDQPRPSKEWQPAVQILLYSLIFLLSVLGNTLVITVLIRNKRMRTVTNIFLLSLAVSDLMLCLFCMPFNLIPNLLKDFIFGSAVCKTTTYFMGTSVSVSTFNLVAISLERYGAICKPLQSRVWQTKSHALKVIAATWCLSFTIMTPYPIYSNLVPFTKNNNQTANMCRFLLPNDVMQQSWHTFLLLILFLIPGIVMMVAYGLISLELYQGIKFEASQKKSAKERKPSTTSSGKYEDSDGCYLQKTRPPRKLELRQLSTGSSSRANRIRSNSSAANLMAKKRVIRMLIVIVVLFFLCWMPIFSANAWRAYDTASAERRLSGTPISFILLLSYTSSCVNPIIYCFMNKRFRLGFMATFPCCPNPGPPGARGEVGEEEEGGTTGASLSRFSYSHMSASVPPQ

delta 2 (DOP) (h) = target: T3, delta 2 (DOP) (h) (Homo sapiens, UniProt P41143); test: ExpresSProfile delta 2 (DOP) (h) agonist radioligand; type: binding; conditions: Reference Compound
T3 construct: Cerep (contract assay) P1
T3 sequence (P41143 whole entry): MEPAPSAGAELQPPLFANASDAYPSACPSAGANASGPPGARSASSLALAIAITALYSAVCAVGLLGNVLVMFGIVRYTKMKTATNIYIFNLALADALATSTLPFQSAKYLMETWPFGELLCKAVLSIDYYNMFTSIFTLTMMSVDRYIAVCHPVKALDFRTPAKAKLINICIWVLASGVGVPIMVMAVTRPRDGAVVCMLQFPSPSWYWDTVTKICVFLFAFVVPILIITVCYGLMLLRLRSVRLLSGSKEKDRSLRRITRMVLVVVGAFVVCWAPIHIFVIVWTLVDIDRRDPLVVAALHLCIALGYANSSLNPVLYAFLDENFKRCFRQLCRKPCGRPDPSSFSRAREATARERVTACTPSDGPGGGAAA

CXCR2 (IL-8B) (h) = target: T4, CXCR2 (IL-8B) (h) (Homo sapiens, UniProt P25025); test: ExpresSProfile CXCR2 (IL-8B) (h) agonist radioligand; type: binding; conditions: Reference Compound
T4 construct: Cerep P1
T4 sequence (P25025 1-360): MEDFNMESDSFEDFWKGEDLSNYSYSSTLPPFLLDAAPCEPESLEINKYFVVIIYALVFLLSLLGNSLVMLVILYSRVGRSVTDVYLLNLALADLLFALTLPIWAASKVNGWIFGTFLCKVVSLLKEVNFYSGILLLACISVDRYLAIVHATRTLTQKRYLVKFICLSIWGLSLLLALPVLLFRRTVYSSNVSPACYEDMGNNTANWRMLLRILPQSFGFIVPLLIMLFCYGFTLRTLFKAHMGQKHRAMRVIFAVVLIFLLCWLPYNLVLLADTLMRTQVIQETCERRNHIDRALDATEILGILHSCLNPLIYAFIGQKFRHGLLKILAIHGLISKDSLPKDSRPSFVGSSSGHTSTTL

CCR1 (h) = target: T5, CCR1 (h) (Homo sapiens, UniProt P32246); test: ExpresSProfile CCR1 (h) agonist radioligand; type: binding; conditions: Reference Compound; read-out: Ki Ref
T5 construct: Cerep P1
T5 sequence (P32246 1-355): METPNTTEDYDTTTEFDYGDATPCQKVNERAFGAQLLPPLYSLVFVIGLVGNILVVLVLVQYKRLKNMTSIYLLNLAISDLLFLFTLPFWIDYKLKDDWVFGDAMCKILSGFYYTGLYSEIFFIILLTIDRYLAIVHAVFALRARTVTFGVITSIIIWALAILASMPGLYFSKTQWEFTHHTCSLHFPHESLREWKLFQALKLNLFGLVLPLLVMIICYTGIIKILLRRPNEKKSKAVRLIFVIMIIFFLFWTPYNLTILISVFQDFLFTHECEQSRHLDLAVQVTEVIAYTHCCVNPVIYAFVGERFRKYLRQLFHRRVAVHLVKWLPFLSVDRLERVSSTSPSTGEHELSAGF

B2 (h) = target: T6, B2 (h) (Homo sapiens, UniProt P30411); test: ExpresSProfile B2 (h) agonist radioligand; type: binding
T6 construct: Cerep P1
T6 sequence (P30411 1-391): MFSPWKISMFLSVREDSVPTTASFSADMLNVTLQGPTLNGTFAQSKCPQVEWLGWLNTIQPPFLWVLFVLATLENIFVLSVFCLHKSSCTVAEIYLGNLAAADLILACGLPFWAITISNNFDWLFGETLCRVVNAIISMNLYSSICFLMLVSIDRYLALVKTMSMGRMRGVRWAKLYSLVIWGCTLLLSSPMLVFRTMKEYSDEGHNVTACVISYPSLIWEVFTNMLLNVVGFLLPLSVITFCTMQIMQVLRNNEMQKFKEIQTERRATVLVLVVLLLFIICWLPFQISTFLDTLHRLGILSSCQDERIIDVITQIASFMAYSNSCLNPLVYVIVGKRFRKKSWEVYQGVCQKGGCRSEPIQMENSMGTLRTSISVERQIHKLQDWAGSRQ

KV channel = test: ExpresSProfile KV channel antagonist radioligand; type: binding; conditions: Reference Compound; read-out: Ki Ref

IC50 [nM] Ca (NTR1 [1]): single digit nanomolar | IC50 [nM] RLB (NTR1 [2]): single digit nanomolar
Compound: CNCCCN(C)CCCN(C)C(=O)c1ccc(-n2nc(C(=O)NC3(C(=O)O)C4CC5CC(C4)CC3C5)cc2-c2c(OC)cccc2OC)c(C(C)C)c1 (stereo not drawn) [(III), 2-({5-(2,6-Dimethoxy-phenyl)-1-[2-isopropyl-4-(methyl-{3-[methyl-(3-methylamino-propyl)-amino]-propyl}-carbamoyl)-phenyl]-1H-pyrazole-3-carbonyl}-amino)-adamantane-2-carboxylic acid]

IC50 (NTR1 [2]): 2 nM
Compound: COc1cccc(OC)c1-c1cc(C(=O)NC2(C(=O)O)C3CC4CC(C3)CC2C4)nn1-c1ccc(C(=O)N(C)CCCN(C)CCCN(C)C(=O)c2ccc(F)cc2)cc1C(C)C (stereo not drawn) [(IIIg), 2-{[5-(2,6-Dimethoxy-phenyl)-1-(4-{[3-({3-[(4-fluoro-benzoyl)-methyl-amino]-propyl}-methyl-amino)-propyl]-methyl-carbamoyl}-2-isopropyl-phenyl)-1H-pyrazole-3-carbonyl]-amino}-adamantane-2-carboxylic acid]

IC50 [nM] Ca (NTR1 [1]): single digit nanomolar | IC50 [nM] RLB (NTR1 [2]): single digit nanomolar
Compound: COc1cccc(OC)c1-c1cc(C(=O)NC2(C(=O)O)C3CC4CC(C3)CC2C4)nn1-c1ccc(C(=O)N(CCCN)CCCN(C)C)cc1C(C)C (stereo not drawn) [(V), 2-{[1-{4-[(3-Amino-propyl)-(3-dimethylamino-propyl)-carbamoyl]-2-isopropyl-phenyl}-5-(2,6-dimethoxy-phenyl)-1H-pyrazole-3-carbonyl]-amino}-adamantane-2-carboxylic acid]

Compound: CCK-8s
nH Ref (CCK1 (CCKA) (h)): 0.6

Compound: DPDPE
nH Ref (delta 2 (DOP) (h)): 0.9

nH Ref (CXCR2 (IL-8B) (h)): 1.4 | Ki (CXCR2 (IL-8B) (h); read-out: Ki Ref): 0.056 nM
Compound: IL-8: reference compound, CXCR2 (IL-8B) (h) assay

Ki (CCR1 (h)): 0.041 nM
Compound: MIP-1alpha: reference compound, CCR1 (h) assay

Compound: NPC 567
nH Ref (B2 (h)): 0.9

Compound: alpha-dendrotoxin
Ki (KV channel): 0.2 nM
